≈ marks a conversion by molar mass, not a printed value.
Tests used:
Type in all cases: cell-based
[1] = system: Salmonella heidellberg X-514; experiment: Gradient plate in vitro MIC, X514; settings: X514, G-; for MIC: Salmonella, read-out: minimum inhibitory concentration (MIC)
From the text: (§1) The data which follow are minimum inhibitory concentrations (MIC) in micrograms of compound per milliliter of agar medium in standard gradient plate in vitro tests against various Gram positive and Gram negative microorganisms. The data given here are for compounds satisfying the general formula [drawing 25] where R and X are as defined in the table which follows:
(§2) 1. The gradient plate procedure used is essentially that described by
(§3) Bryson and Szybalski in 1952 (Science, 116, pp. 45-46). The inoculum
(§4) 3. Gram negative microorganism identifications:
X-514 is Salmonella heidellberg

Escherichia coli N-10 = experiment: Gradient plate in vitro MIC, N10; settings: N10, G-; for MIC: Escherichia coli, read-out: minimum inhibitory concentration (MIC)
From the text: as §1, §2, §3, §4
N-10 is Escherichia coli

[2] = system: penicillin-resistant Staphylococcus aureus strain V-84; experiment: Gradient plate in vitro MIC, strain V84; settings: V84, G+; for MIC: Staphylococcus aureus, read-out: minimum inhibitory concentration (MIC)
From the text: as §1, §2, §3
(§5) treatment method used for penicillin-resistant Staphlococci was reported
(§6) by Godzeski et al. in Antimicrobial Agents and Chemotherapy, May, 1961,
(§7) 2. Gram positive microorganism identifications are all
(§8) penicillin-resistant Staphylococcus aureus strains V-41, V-32, X-400,
(§9) V-84. X-400 is also Methicillin-resistant.

[3] = system: penicillin-resistant, Methicillin-resistant Staphylococcus aureus strain X-400; experiment: Gradient plate in vitro MIC, strain X400; settings: X400, G+, penicillin- and Methicillin-resistant; for MIC: Staphylococcus aureus, read-out: minimum inhibitory concentration (MIC)
From the text: as §1, §2, §3, §5, §6, §7, §8, §9

[4] = system: penicillin-resistant Staphylococcus aureus strain V-41; experiment: Gradient plate in vitro MIC, strain V41; settings: V41, G+, read-out: minimum inhibitory concentration (MIC)
From the text: as §1, §2, §3, §5, §6, §7, §8, §9

Schigella sp. N-9 = experiment: Gradient plate in vitro MIC, N9; settings: N9, G-; for MIC: read-out: minimum inhibitory concentration (MIC)
From the text: as §1, §2, §3

Serratia marcescens X-99 = experiment: Gradient plate in vitro MIC, X99; settings: X99, G-; for MIC: Serratia marcescens, read-out: minimum inhibitory concentration (MIC)
From the text: as §1, §2, §3, §4
X-99 is Serratia marcescens

[5] = system: Pseudomonas aerogenosa X-528; experiment: Gradient plate in vitro MIC, X528; settings: X528, G-; for MIC: Pseudomonas, read-out: minimum inhibitory concentration (MIC)
From the text: as §1, §2, §3, §4
X-528 is Pseudomonas aerogenosa

[6] = system: Enterobacter aerogenes X-68; experiment: Gradient plate in vitro MIC, X68; settings: X68, G-; for MIC: Klebsiella aerogenes, read-out: minimum inhibitory concentration (MIC)
From the text: as §1, §2, §3, §4
X-68 is Enterobacter aerogenes

[7] = system: penicillin-resistant Staphylococcus aureus strain V-32; experiment: Gradient plate in vitro MIC, strain V32; settings: V32, G+; for MIC: Staphylococcus aureus, read-out: minimum inhibitory concentration (MIC)
From the text: as §1, §2, §3, §5, §6, §7, §8, §9

[8] = system: Klebsiella pneumonia X-26; experiment: Gradient plate in vitro MIC, X26; settings: X26, G-; for MIC: Klebsiella pneumoniae, read-out: minimum inhibitory concentration (MIC)
From the text: as §1, §2, §3, §4
X-26 is Klebsiella pneumonia

B. subtilis = experiment: Bioautograph test against B. subtilis; settings: at 1 microgram/milliliter
Protocol: Each of the cis-and trans-isomers of tert-butyl 3-(2'-cyanovinyl)-7-phenoxyacetamido-3-cephem-4-carboxylate from Example 17 was in turn treated with 98-100 percent formic acid for 1 hour at room temperature to cleave the tert-butyl ester groups therefrom. After evaporation under reduced pressure of the excess formic acid, the acid residue was separated as an oil.

[9] = system: Gram positive and Gram negative microorganisms; experiment: Standard gradient plate assay, Gram positive and Gram negative microorganisms
From the text: as §1, §2, §3

Sarcina lutea = experiment: Bioautograph against Sarcina lutea
Protocol: (§10) A solution of 25 mg. of tert-butyl 7-(2'-tert-butoxycarbonylamino-2'-phenylacetamido)-3-(2'-tert-butoxycarbonylvinyl)-3-cephem-4-carboxylate, prepared as described in Example 19, in 5 cc of 98-100 percent formic acid was allowed to stand for 1 hour at room temperature. After evaporating under reduced pressure the formic acid, the acid residue was taken up in trifluoroacetic acid and the NMR spectrum was taken.

[10] = system: Gram positive and Gram negative microorganisms; experiment: Disc plate assay; settings: variety of Gram positive and Gram negative microorganisms
Protocol: as §10

CCOC(=O)C=CC1=C(C(=O)O)N2C(=O)C(NC(=O)Cc3cccs3)C2SC1 (stereo not shown)
MIC [1]: 4.7 µg/mL (≈ 11.1 µM) | MIC (Escherichia coli N-10): 3.8 µg/mL (≈ 8.99 µM) | MIC [2]: 7.1 µg/mL (≈ 16.8 µM) | MIC [3]: > 20 µg/mL | MIC [4]: 6.2 µg/mL (≈ 14.7 µM) | MIC (Schigella sp. N-9): 2.6 µg/mL (≈ 6.15 µM) | MIC (Serratia marcescens X-99): > 50 µg/mL | MIC [5]: > 50 µg/mL | MIC [6]: 3.3 µg/mL (≈ 7.81 µM) | MIC [7]: 7.5 µg/mL (≈ 17.8 µM) | MIC [8]: 5.3 µg/mL (≈ 12.5 µM)

O=C(O)C=CC1=C(C(=O)O)N2C(=O)C(NC(=O)[C@H](O)c3ccccc3)C2SC1 (stereo partly shown)
MIC [1]: 0.6 µg/mL (≈ 1.48 µM) | MIC (Escherichia coli N-10): 5.7 µg/mL (≈ 14.1 µM) | MIC [2]: 11.2 µg/mL (≈ 27.7 µM) | MIC [3]: > 20 µg/mL | MIC [4]: > 20 µg/mL | MIC (Schigella sp. N-9): 3.3 µg/mL (≈ 8.16 µM) | MIC (Serratia marcescens X-99): > 50 µg/mL | MIC [5]: > 50 µg/mL | MIC [6]: 1 µg/mL (≈ 2.47 µM) | MIC [7]: > 20 µg/mL | MIC [8]: 5 µg/mL (≈ 12.4 µM)

3-(2-cyanovinyl)-7-phenoxyacetamido-3-cephem-4-carboxylic acid
minimum inhibitory concentration (MIC) [1]: 12.1 micrograms of compound per mil | minimum inhibitory concentration (MIC) (Escherichia coli N-10): 102.0 micrograms of compound per mil | minimum inhibitory concentration (MIC) [2]: 3.8 micrograms of compound per mil | minimum inhibitory concentration (MIC) [3]: > 20 micrograms of compound per mil | minimum inhibitory concentration (MIC) (Schigella sp. N-9): 40.4 micrograms of compound per mil | minimum inhibitory concentration (MIC) (Serratia marcescens X-99): 21.0 micrograms of compound per mil | minimum inhibitory concentration (MIC) [5]: 162.0 micrograms of compound per mil | minimum inhibitory concentration (MIC) [6]: 38.2 micrograms of compound per mil | minimum inhibitory concentration (MIC) [7]: 6.1 micrograms of compound per mil | minimum inhibitory concentration (MIC) [8]: 110.0 micrograms of compound per mil

N#C/C=C\C1=C(C(=O)O)N2C(=O)C(NC(=O)COc3ccccc3)C2SC1 (single isomer, unassigned; isomer 3) [Example 20 cis-isomer, 3-(2-cyanovinyl)-7-phenoxyacetamido-3-cephem-4-carboxylic acid]
antibiotic activity zone on bioautograph (B. subtilis): large antibiotic activity zone

N#C/C=C/C1=C(C(=O)O)N2C(=O)C(NC(=O)COc3ccccc3)C2SC1 (single isomer, unassigned; isomer 3) [Example 20 trans-isomer, 3-(2-cyanovinyl)-7-phenoxyacetamido-3-cephem-4-carboxylic acid]
gradient plate MIC, trans-isomer compared with cis-isomer ([9]; against both Gram positive and Gram negative microorganisms): more active than the cis-isomer | antibiotic activity zone on bioautograph (B. subtilis): large antibiotic activity zone

O=C(O)C=CC1=C(C(=O)O)N2C(=O)C(NC(=O)C(C(=O)O)c3ccccc3)[C@H]2SC1 (stereo partly shown) [7-(2'-carboxy-2'-phenylacetamido)-3-(2'-carboxyvinyl)-3-cephem-4-carboxylic acid]
MIC [1]: 1 µg/mL (≈ 2.31 µM) | MIC (Escherichia coli N-10): 36.5 µg/mL (≈ 84.4 µM) | MIC [2]: > 20 µg/mL | MIC [3]: > 20 µg/mL | MIC [4]: > 20 µg/mL | MIC (Schigella sp. N-9): 7 µg/mL (≈ 16.2 µM) | MIC (Serratia marcescens X-99): < 8 µg/mL | MIC [5]: 29.5 µg/mL (≈ 68.2 µM) | MIC [6]: 2 µg/mL (≈ 4.63 µM) | MIC [7]: > 20 µg/mL | MIC [8]: 35 µg/mL (≈ 80.9 µM)

CCOC(=O)C=CC1=C(C(=O)O)N2C(=O)C(NC(=O)C(C(=O)O)c3ccccc3)[C@H]2SC1 (stereo partly shown) [7-(2'-carboxy-2'-phenylacetamido)-3-(2'-ethoxycarbonylvinyl)-3-cephem-4-carboxylic acid]
MIC [1]: 0.8 µg/mL (≈ 1.74 µM) | MIC (Escherichia coli N-10): 6.3 µg/mL (≈ 13.7 µM) | MIC [2]: 11.4 µg/mL (≈ 24.8 µM) | MIC [3]: > 20 µg/mL | MIC [4]: 7.9 µg/mL (≈ 17.2 µM) | MIC (Schigella sp. N-9): 1 µg/mL (≈ 2.17 µM) | MIC (Serratia marcescens X-99): 0.6 µg/mL (≈ 1.3 µM) | MIC [5]: 42.2 µg/mL (≈ 91.6 µM) | MIC [6]: 3 µg/mL (≈ 6.52 µM) | MIC [7]: 10.3 µg/mL (≈ 22.4 µM) | MIC [8]: 2.5 µg/mL (≈ 5.43 µM)

CCOC(=O)C=CC1=C(C(=O)O)N2C(=O)C(NC(=O)COc3ccccc3)[C@H]2SC1 (stereo partly shown) [Example 3, 3-(2'-ethoxycarbonylvinyl)-7-phenoxyacetamido-3-cephem-4-carboxylic acid]
activity as an antibiotic in gradient plate tests ([9]; variety of both Gram positive and Gram negative microorganisms): showed activity as an antibiotic

NC(C(=O)NC1C(=O)N2C(C(=O)O)=C(C=CC(=O)O)CS[C@H]12)c1ccccc1 (stereo partly shown) [Example 23, 7-(2'-amino-2'-phenylacetamido)-3-(2'-carboxyvinyl)-3-cephem-4-carboxylic acid]
antibiotically active zone on bioautograph (Sarcina lutea; acid residue after formic acid/trifluoroacetic acid): only one antibiotically active zone | polarity of the active zone on the bioautograph (Sarcina lutea; compared with cephalexin): more polar than cephalexin | antibiotic activity in disc plate assay [10]: antibiotic activity

From patent publication US4065620A, “3-(Substituted) vinyl cephalosporins” (Eli Lilly and Company, priority 1971, dated 1977)
